Laboratory results published in US10561703B2, “Method of modulating sex hormone levels using a sex hormone secretion modulator” (GEMVAX & KAEL CO., LTD., priority 2013, dated 2020).

Test system: FSH
Assay: FSH level in blood (serum CLIA) after repeated sc PEP-1
Assay type: in vivo, SD rats
Procedure: PEP-1 (peptide of SEQ ID NO: 1), lyophilized white powder, obtained according to the method mentioned in example 1 was dissolved in 0.9% of saline, considering the correction factor of PEP-1 (purity: 94.13%, content: 92.36%, correction factor: 1.15). 50 mg/mL stock solution was further diluted into 20 mg/mL, 2 mg/mL, and 1 mg/mL with 0.9% saline, and stored at 4° C. for a week until the use.
The purpose of this example is to confirm the change of sexual hormones in blood from SD rats with 7 days repeated daily administration of SEQ ID NO: 1 peptide, PEP-1. This experiment followed the Ethics Regulation of Animal Test by KAMSI Inc. (Korea Animal Medical Science Institute). In addition, this experiment, Non-GLP experiment, referred to the MFDS (Ministry of Food and Drug Safety) notification; Agent 2013-40 (5th April 2013), Principles of Good Laboratory Practice (1997).
SPF Rats (Crlj:CD(SD)) were purchased from ORIENTBio Inc. (Mokdong-ri, Buk-myeon, Gapyeong-gun, Gyeonggi-do, Republic of Korea). 75 male (6.5 weeks old and 190˜210 g) and 75 female (6.5 weeks old and 160˜180 g) rats were monitored for 4 days, and 64 of male and female rats (each) were selected for the experiment. Raising condition is as follows; 23±3° C. of temperature, […] of relative humidity, 10˜20 times/hr of number of air changes, 12 hours (8 a.m.˜8 p.m.) of lighting with 150˜300 Lux of intensity.
64 male and female […] (mentioned above) were divided into 8 groups. Administration regimen, for example, drugs, routes, dosages, and volumes were as follows:
The detailed administration regimen is as follows; once a day, twice a day and twice a week in each experimental group. Injection initiated at 10 a.m. every day, and each rat was injected at one minute intervals. Rats in Group 9, 10, 13 and 14 were injected twice a week. Administration of high dose test agent preceded that of low dose. The volume of injection was calculated using recently measured weight of rats, and it was 5 mL/kg. Subcutaneous injection was performed as follows; assistant tilted the back of rat upward, and experimenter sterilized the back of rat with 70% alcohol, followed by subcutaneous injection of test agent with 26 G syringe.
1.4 mL of blood sample (0.7 mL of serum) was collected after measurement of weight (Day 0). Next day (1 Day), 1.4 mL of blood sample (0.7 mL of serum) was collected twice after injection of test agent (4 hrs and 8 hrs after administration of test agent). For next 6 days (Day 2˜Day 7), 1.4 mL of blood was extracted once everyday (4 hours after injection of test agent). Dose and volume of test agent of each group followed the Table 3, and injection time zone was same every day. Blood was extracted from the jugular vein, and left at room temperature for 30 minutes. Serum was separated using centrifugation (10,000 rpm for 5 minutes), and stored at −70±5° C. in Deep freezer until the use. Blood extraction from each subject was done in the same time zone every day.
A CLIA (Chemi-Luminescence Immune Assay) Kit was used to analyze Testosterone, Estradiol E2, FSH (Follicle stimulating hormone), and LH (Luteinizing hormone). Analysis was completed within 48 hrs after blood extraction (Laboratory Medicine Department, Chung-Ang University Hospital), and detailed method is as follows; One-way ANOVA was used to verify the comparison between the vehicle and PEP-1, and between different doses of PEP-1. For further analysis, Duncan test was used as parametric test and Dunnett's test as non-parametric test. p<0.05 represents the statistical significance, and all statistical analysis was carried out with SPSS 10.1.
FSH was analyzed using the samples prepared from example 2. 100 μL of serum was used for analysis. Fundamentals of analysis is Two-site sandwich immunoassay based on direct chemi-luminescent. As mentioned in example 2, CLIA (Chemi-luminescence immune assay) Kit was used, following the manufacture's protocol.

## EARPALLTSRLRFIPK (listed as Homo sapiens) [PEP-1, hormone secretion modulator / GnRH analog]
G11 Male 100 mg/kg sc 1/day x7, 4 days
  FSH level in blood: 0.23 mIU/mL
G11 Male 100 mg/kg sc 1/day x7, 5 days
  FSH level in blood: 0.21 mIU/mL
G11 Male 100 mg/kg sc 1/day x7, 6 days
  FSH level in blood: 0.12 mIU/mL
G11 Male 100 mg/kg sc 1/day x7, 7 days
  FSH level in blood: 0.15 mIU/mL
G11 Male 100 mg/kg sc 1/day x7, pre
  FSH level in blood: 0.17 mIU/mL
G12 Female 100 mg/kg sc 1/day x7, 4 hr
  FSH level in blood: 0.23 mIU/mL
G12 Female 100 mg/kg sc 1/day x7, 8 hr
  FSH level in blood: 0.25 mIU/mL
G12 Female 100 mg/kg sc 1/day x7, 2 days
  FSH level in blood: 0.28 mIU/mL
G12 Female 100 mg/kg sc 1/day x7, 3 days
  FSH level in blood: 0.19 mIU/mL
G12 Female 100 mg/kg sc 1/day x7, 4 days
  FSH level in blood: 0.15 mIU/mL
G12 Female 100 mg/kg sc 1/day x7, 5 days
  FSH level in blood: 0.21 mIU/mL
G12 Female 100 mg/kg sc 1/day x7, 6 days
  FSH level in blood: 0.1 mIU/mL
G12 Female 100 mg/kg sc 1/day x7, 7 days
  FSH level in blood: 0.12 mIU/mL
G12 Female 100 mg/kg sc 1/day x7, pre
  FSH level in blood: 0.21 mIU/mL
G13 Male 100 mg/kg sc 2/week x2 (days 1,7), 4 hr
  FSH level in blood: 0.21 mIU/mL
G13 Male 100 mg/kg sc 2/week x2 (days 1,7), 8 hr
  FSH level in blood: 0.23 mIU/mL
G13 Male 100 mg/kg sc 2/week x2 (days 1,7), 2 days
  FSH level in blood: 0.24 mIU/mL
G13 Male 100 mg/kg sc 2/week x2 (days 1,7), 3 days
  FSH level in blood: 0.19 mIU/mL
G13 Male 100 mg/kg sc 2/week x2 (days 1,7), 4 days
  FSH level in blood: 0.26 mIU/mL
G13 Male 100 mg/kg sc 2/week x2 (days 1,7), 5 days
  FSH level in blood: 0.37 mIU/mL
G13 Male 100 mg/kg sc 2/week x2 (days 1,7), 6 days
  FSH level in blood: 0.19 mIU/mL
G13 Male 100 mg/kg sc 2/week x2 (days 1,7), 7 days
  FSH level in blood: 0.14 mIU/mL
G13 Male 100 mg/kg sc 2/week x2 (days 1,7), pre
  FSH level in blood: 0.38 mIU/mL
G14 Female 100 mg/kg sc 2/week x2 (days 1,7), 4 hr
  FSH level in blood: 0.48 mIU/mL
G14 Female 100 mg/kg sc 2/week x2 (days 1,7), 8 hr
  FSH level in blood: 0.4 mIU/mL
G14 Female 100 mg/kg sc 2/week x2 (days 1,7), 2 days
  FSH level in blood: 0.23 mIU/mL
G14 Female 100 mg/kg sc 2/week x2 (days 1,7), 3 days
  FSH level in blood: 0.17 mIU/mL
G14 Female 100 mg/kg sc 2/week x2 (days 1,7), 4 days
  FSH level in blood: 0.14 mIU/mL
G14 Female 100 mg/kg sc 2/week x2 (days 1,7), 5 days
  FSH level in blood: 0.24 mIU/mL
G14 Female 100 mg/kg sc 2/week x2 (days 1,7), 6 days
  FSH level in blood: 0.17 mIU/mL
G14 Female 100 mg/kg sc 2/week x2 (days 1,7), 7 days
  FSH level in blood: 0.22 mIU/mL
G14 Female 100 mg/kg sc 2/week x2 (days 1,7), pre
  FSH level in blood: 0.17 mIU/mL
G15 Male 250 mg/kg sc 1/day x7, 4 hr
  FSH level in blood: 0.26 mIU/mL
G15 Male 250 mg/kg sc 1/day x7, 8 hr
  FSH level in blood: 0.35 mIU/mL
G15 Male 250 mg/kg sc 1/day x7, 2 days
  FSH level in blood: 0.44 mIU/mL
G15 Male 250 mg/kg sc 1/day x7, 3 days
  FSH level in blood: 0.12 mIU/mL
G15 Male 250 mg/kg sc 1/day x7, 4 days
  FSH level in blood: 0.23 mIU/mL
G15 Male 250 mg/kg sc 1/day x7, 5 days
  FSH level in blood: 0.25 mIU/mL
G15 Male 250 mg/kg sc 1/day x7, 6 days
  FSH level in blood: 0.1 mIU/mL
G15 Male 250 mg/kg sc 1/day x7, 7 days
  FSH level in blood: 0.12 mIU/mL
G15 Male 250 mg/kg sc 1/day x7, pre
  FSH level in blood: 0.38 mIU/mL
G16 Female 250 mg/kg sc 1/day x7, 4 hr
  FSH level in blood: 0.27 mIU/mL
G16 Female 250 mg/kg sc 1/day x7, 8 hr
  FSH level in blood: 0.3 mIU/mL
G16 Female 250 mg/kg sc 1/day x7, 2 days
  FSH level in blood: 0.34 mIU/mL
G16 Female 250 mg/kg sc 1/day x7, 3 days
  FSH level in blood: 0.20 mIU/mL
G16 Female 250 mg/kg sc 1/day x7, 4 days
  FSH level in blood: 0.12 mIU/mL
G16 Female 250 mg/kg sc 1/day x7, 5 days
  FSH level in blood: 0.19 mIU/mL
G16 Female 250 mg/kg sc 1/day x7, 6 days
  FSH level in blood: 0.18 mIU/mL
G16 Female 250 mg/kg sc 1/day x7, 7 days
  FSH level in blood: 0.08 mIU/mL
G16 Female 250 mg/kg sc 1/day x7, pre
  FSH level in blood: 0.19 mIU/mL
Male and female, Day 1, 4 hr and 8 hr post injection, in particular high doses (G11 to G16)
  Change in FSH level compared to baseline: slight increase
